Source: patent US9120749B2, “Quinoline derivatives and MELK inhibitors containing the same” (ONCOTHERAPY SCIENCE, INC., priority 2010, dated 2015)
Counter-ions that a name gives are not always drawn. Like-named read-outs stand apart in the source and are kept apart here.

Legend:
MELK = MELK (Homo sapiens, UniProt Q14680); experiment: Kinase assay: MELK activity, phosphorylation of FITC-labeled histone H3 peptide measured by IMAP fluorescence polarization; assay type: biochemical; conditions: read-out: IC50 (μM) (kinase assay)
MELK, sequence (Q14680 whole entry, looked up): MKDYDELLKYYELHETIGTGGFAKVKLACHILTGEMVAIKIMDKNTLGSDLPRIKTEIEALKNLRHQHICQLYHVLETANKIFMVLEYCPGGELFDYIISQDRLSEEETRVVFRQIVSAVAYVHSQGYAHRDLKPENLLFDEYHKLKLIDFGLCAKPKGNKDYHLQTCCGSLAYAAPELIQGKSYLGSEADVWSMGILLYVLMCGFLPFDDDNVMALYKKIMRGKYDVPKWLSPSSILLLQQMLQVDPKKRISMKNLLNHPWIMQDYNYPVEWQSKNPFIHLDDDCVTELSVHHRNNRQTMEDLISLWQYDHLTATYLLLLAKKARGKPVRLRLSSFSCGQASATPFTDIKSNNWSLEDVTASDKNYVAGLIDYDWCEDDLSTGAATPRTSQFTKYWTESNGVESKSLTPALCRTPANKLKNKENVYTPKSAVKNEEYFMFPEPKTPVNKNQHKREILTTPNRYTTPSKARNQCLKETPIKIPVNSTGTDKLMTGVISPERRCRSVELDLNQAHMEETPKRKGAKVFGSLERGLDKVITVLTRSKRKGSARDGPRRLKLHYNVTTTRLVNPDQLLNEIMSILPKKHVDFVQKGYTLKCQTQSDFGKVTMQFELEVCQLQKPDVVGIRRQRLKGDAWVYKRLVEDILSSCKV
How it was run: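 Compounds, serially diluted from 12.5 mM DMSO stocks to 1% final DMSO, were tested with FITC-labeled histone H3 peptide as substrate. The reaction was stopped with progressive binding solution. Fluorescence polarization was read after 0.5 hour at room temperature.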

T47D cells = experiment: Cell-based assay: anti-proliferative activity, Cell Counting Kit-8, 72 hours (T47D)
How it was run: (§1)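 Anti-MELK western blot on crude lysates → MELK status per line. Cells plated 96-well, compound exposure, CCK-8 readout at 72 h; IC50 calculated.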

A549 cells = experiment: Cell-based assay: anti-proliferative activity, Cell Counting Kit-8, 72 hours (A549); conditions: 72 hours
How it was run: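 A549 cells seeded in 96-well plates and exposed to candidate inhibitors for 72 hours. Growth measured with Cell Counting Kit-8; IC50 values calculated from the dose response.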

HT-1197 cells = experiment: Cell-based assay: anti-proliferative activity, Cell Counting Kit-8, 72 hours (HT-1197, negative control without MELK expression); conditions: HT1197 cells (negative control), 72 hours
How it was run: as §1

DU4475 cells = experiment: Cell-based assay: anti-proliferative activity, Cell Counting Kit-8, 72 hours (DU4475)

Compound | IC50 (MELK; hydrochloride) | IC50 (T47D cells; Homo sapiens, T47D, 72 h) | IC50 (A549 cells; Homo sapiens, A549, 72 h) | IC50 (HT-1197 cells; Homo sapiens, HT1197, 72 h) | IC50 (DU4475 cells; Homo sapiens, DU-4475, 72 h) | IC50 (MELK) | IC50 (MELK; dihydrochloride) | IC50 (T47D cells; 72 hours, dihydrochloride) | IC50 (A549 cells; dihydrochloride) | IC50 (HT-1197 cells; dihydrochloride) | IC50 (DU4475 cells; dihydrochloride)
CC(C)(N)c1ccc(Nc2c(C(=O)C3CC3)cnc3ccc(-c4cc(Cl)c(O)c(Cl)c4)cc23)cc1 [Example 601, {4-[4-(2-Aminopropan-2-yl)phenylamino]-6-(3,5-dichloro-4-hydroxyphenyl)quinolin-3-yl}(cyclopropyl)methanone hydrochloride] | 0.0014 µM | 0.09 µM | 0.047 µM | 0.42 µM | 0.023 µM |  |  |  |  |  | 
CC(=O)c1cnc2ccc(-c3cc(F)c(O)c(Cl)c3)cc2c1N[C@H]1CC[C@H](N)CC1 [Example 527, 1-(4-((trans-4-aminocyclohexyl)amino)-6-(3-chloro-5-fluoro-4-hydroxyphenyl)quinolin-3-yl)ethanone] |  | 0.034 µM | 0.42 µM | 10 µM | 0.02 µM | 0.015 µM |  |  |  |  | 
NC1CCCN(c2ncc(Nc3c(C(=O)C4CC4)cnc4ccc(-c5cc(Cl)c(O)c(Cl)c5)cc34)cn2)C1 (centres unmarked) [Example 628, (4-(2-(3-aminopiperidin-1-yl)pyrimidin-5-ylamino)-6-(3,5-dichloro-4-hydroxyphenyl)quinolin-3-yl)(cyclopropyl)methanone] |  | 0.0069 µM | 0.019 µM | 0.33 µM | 0.0056 µM | 0.0015 µM |  |  |  |  | 
COc1cc(-c2ccc3ncc(C(=O)C4CC4)c(Nc4cnn(C5CCNCC5)c4)c3c2)cc(Cl)c1O [Example 512, (6-(3-chloro-4-hydroxy-5-methoxyphenyl)-4-(1-(piperidin-4-yl)-1H-pyrazol-4-ylamino)quinolin-3-yl)(cyclopropyl)methanone] |  | 0.41 µM | 0.3 µM | 2.9 µM | 0.31 µM | 0.0022 µM |  |  |  |  | 
CCCC(=O)c1cnc2ccc(-c3cc(F)c(O)c(Cl)c3)cc2c1Nc1ccc(CN(C)C)cc1 [Example 537, 1-(6-(3-chloro-5-fluoro-4-hydroxyphenyl)-4-((4-((dimethylamino)methyl)phenyl)amino)quinolin-3-yl)butan-1-one] |  | 0.11 µM | 0.15 µM | 0.94 µM | 0.098 µM | 0.016 µM |  |  |  |  | 
CCCC(=O)c1cnc2ccc(-c3cc(Cl)c(O)c(OC)c3)cc2c1N[C@H]1CC[C@H](CN(C)C)CC1 [Example 607] |  | 0.24 µM | 0.48 µM | 3.4 µM | 0.24 µM | 0.0051 µM |  |  |  |  | 
CN(C)C[C@H]1CC[C@@H](Nc2c(C(=O)C3CC3)cnc3ccc(-c4cc(Cl)c(O)c(Cl)c4)cc23)CC1 [Example 526, cyclopropyl(6-(3,5-dichloro-4-hydroxyphenyl)-4-((1s,4s)-4-((dimethylamino)methyl)cyclohexylamino)quinolin-3-yl)methanone] |  | 0.29 µM | 0.25 µM | 1.2 µM | 0.15 µM | 0.0021 µM |  |  |  |  | 
O=C(c1cnc2ccc(-c3cc(Cl)c(O)c(Cl)c3)cc2c1N1CCC(C2CCNCC2)CC1)C1CC1 [Example 596, (4-(4,4′-bipiperidin-1-yl)-6-(3,5-dichloro-4-hydroxyphenyl)quinolin-3-yl)(cyclopropyl)methanone] |  | 0.18 µM | 1.5 µM | 5.1 µM | 0.14 µM | 0.0016 µM |  |  |  |  | 
CCCC(=O)c1cnc2ccc(-c3cc(Cl)c(O)c(Cl)c3)cc2c1N[C@H]1CC[C@H](N)CC1 [Example 535, 1-(4-((trans-4-aminocyclohexyl)amino)-6-(3,5-dichloro-4-hydroxyphenyl)quinolin-3-yl)butan-1-one] |  | 0.077 µM | 0.24 µM | 3.3 µM | 0.025 µM | 0.0024 µM |  |  |  |  | 
CCCC(=O)c1cnc2ccc(-c3cc(F)c(O)c(Cl)c3)cc2c1Nc1ccc(N2CCNCC2)nc1 [Example 623, 1-{6-(3-Chloro-5-fluoro-4-hydroxyphenyl)-4-[6-(piperazin-1-yl)pyridin-3-ylamino]quinolin-3-yl}butan-1-one] |  | 0.085 µM | 0.2 µM | 2 µM | 0.1 µM | 0.011 µM |  |  |  |  | 
CN[C@H]1CC[C@H](Nc2c(C(=O)C3CC3)cnc3ccc(-c4cnc(C#N)nc4)cc23)CC1 [Example 522] |  | 0.23 µM | 0.95 µM | 1.1 µM | 0.91 µM | 0.0014 µM |  |  |  |  | 
CN(C)Cc1cccc(Nc2c(C(=O)C3CC3)cnc3ccc(-c4cc(Cl)c(O)c(Cl)c4)cc23)c1 [Example 624, cyclopropyl(6-(3,5-dichloro-4-hydroxyphenyl)-4-(3-((dimethylamino)methyl)phenylamino)quinolin-3-yl)methanone] |  | 0.55 µM | 0.089 µM | 3 µM | 0.043 µM | 0.0016 µM |  |  |  |  | 
CCCC(=O)c1cnc2ccc(-c3cc(Cl)c(O)c(Cl)c3)cc2c1Nc1ccc(CN(C)C)cc1 [Example 531, 1-(6-(3,5-dichloro-4-hydroxyphenyl)-4-((4-((dimethylamino)methyl)phenyl)amino)quinolin-3-yl)butan-1-one dihydrochloride] |  |  |  |  |  |  | 0.0052 µM | 0.11 µM | 0.18 µM | 1.3 µM | 0.072 µM
CN1CCN(c2c(C(=O)C3CC3)cnc3ccc(-c4cc(F)c(O)c(Cl)c4)cc23)CC1 [Example 534, (6-(3-chloro-5-fluoro-4-hydroxyphenyl)-4-(4-methylpiperazin-1-yl)quinolin-3-yl)(cyclopropyl)methanone] |  | 1.1 µM | 1.4 µM | 2.8 µM | 0.96 µM | 0.025 µM |  |  |  |  | 
CN(CC#N)C[C@H]1CC[C@@H](Nc2c(C(=O)C3CC3)cnc3ccc(-c4cc(F)c(O)c(Cl)c4)cc23)CC1 [Example 524, 2-((((1R,4R)-4-(6-(3-Chloro-5-fluoro-4-hydroxyphenyl)-3-(cyclopropanecarbonyl)quinolin-4-ylamino)cyclohexyl)methyl)(methyl)amino)acetonitrile] |  | 0.2 µM | 0.39 µM | 1.7 µM | 0.1 µM | 0.01 µM |  |  |  |  | 
COc1cc(-c2ccc3ncc(C(=O)C4CC4)c(Nc4cccc(CN(C)C)c4)c3c2)cc(Cl)c1O [Example 622, (6-(3-chloro-4-hydroxy-5-methoxyphenyl)-4-(3-((dimethylamino)methyl)phenylamino)quinolin-3-yl)(cyclopropyl)methanone] |  | 1.1 µM | 0.43 µM | 5.5 µM | 0.32 µM | 0.0037 µM |  |  |  |  | 
COc1cc(-c2ccc3ncc(C(=O)C4CC4)c(N[C@H]4CC[C@H](CN5CCC(OC)C5)CC4)c3c2)cc(Cl)c1O (some centres unmarked) [Example 599] |  | 0.51 µM | 0.54 µM | 2.8 µM | 0.37 µM | 0.005 µM |  |  |  |  | 
COc1cc(-c2ccc3ncc(C(=O)C4CC4)c(N[C@H]4CC[C@@H](CN(C)C)CC4)c3c2)cc(Cl)c1O [Example 513] |  | 0.19 µM | 0.099 µM | 3.8 µM | 0.086 µM | 0.002 µM |  |  |  |  | 
CN[C@H]1CC[C@H](Nc2c(C(=O)C3CC3)cnc3ccc(-c4cc(F)c(O)c(Cl)c4)cc23)CC1 [Example 523, {6-(3-Chloro-5-fluoro-4-hydroxyphenyl)-4-[trans-4-(methylamino)cyclohexylamino]quinolin-3-yl}(cyclopropyl)methanone] |  | 0.033 µM | 0.19 µM | 1.3 µM | 0.024 µM | 0.0024 µM |  |  |  |  | 
